Values joined by “and” are separate entries in the source; they are usually repeats but may differ in a detail not shown here. Equal values may be shown once.
How the values were obtained:
T8 SCI rats = assay: Respiratory function by head-out plethysmograph in conscious rats after T8 contusion SCI; format: in vivo, rat
Method: Female Sprague-Dawley rats (250–280 g and 360–390 g; Taconic, Germantown, N.Y.) were anesthetized with 4% chloral hydrate (360 mg/kg, i.p.). An incomplete spinal courd contusion injury was produced at T8 with a weight drop device (10 g×2.5 cm) as previously described (Wrathall et al., 1985). After SCI, manual expression of bladders was performed twice daily until a reflex bladder was established. Animal care also included housing the rats in pairs to reduce isolation-induced stress, maintaining ambient temperature at 22–25° C., and using highly absorbent bedding. No prophylactic antibiotics were given.
(§1) Experiments were conducted in unanesthetized, awake, spontaneously breathing rats at 24 hours prior to SCI, at 24 hours p.i. and weekly afterwards at 1,2,3, and 4 weeks p.i. (1) Acclimatization of the Animals. […] Animals were placed in the body cylinder of the plethysmograph (FIG. 1a) for 60 minutes per day for at least 5 days. […] (2) Non-Invasive Measurements of Respiratory Rate, Tidal Volume and Minute Ventilation. Non-invasive measurements of respiratory function in conscious rats were performed with a restrained head-out plethysmograph specially designed for rodents (BUXCO Electronics, Inc., Sharon, Conn.) (FIG. 1a). The plethymograph apparatus has a neck seal that prevents leakage of air from between the animal's neck and the plethymograph opening. Displacement of the thoracic wall produced by the animal's respiratory movements causes changes in the cylinder pressure, which results in air flowing across a pneumotachograph located on the wall of the cylinder. The pressure drop across the pneumotachograph is measured with a pressure transducer and is proportional to the flow. This signal is amplified and integrated into volume. From measurements of volume and flow, a computer and appropriate software provides respiratory parameters, such as respiratory rate (f), tidal volume (Vt), minute ventilation (Ve), peak inspiratory flow, peak expiratory flow, inspiratory time (Ti), expiratory time (Te), and accumulated volume. An additional opening on the wall of the box allows volume calibration by injecting and removing air from the box with a calibrated syringe.
(§2) The noise level in the laboratory was kept to a minimum in order not to startle the animals. Further, the animals were visually isolated from the investigators by means of a chamber made of an opaque material that surrounded and covered the front-end of the body plethysmograph (FIG. 1b). Baseline recordings lasted for 4 minutes. (3) Measurement of Ventilatory Response to Carbon Dioxide. For measurement of the ventilatory response to CO2, animals were exposed to air containing 7% CO2. The animals breathed from a funnel fixed in the front wall of a chamber made of an opaque material (FIG. 1b). The animals were exposed to the gas mixture containing 7% CO2 (mixed with 60% O2 and 33% N2) for 5 minutes with recording of respiratory activity for another 2 minutes (a total recording duration of 7 minutes).
(§3) The 5HT1A receptor antagonist, p-MPPI (RBI, Natick, Mass.) was also dissolved in 0.9% saline and given i.p. in a dose of 3 mg/kg (pH 7.4 and final volume of 0.5 ml). […] Vehicle solution (VEH) was 0.9% saline and also injected at i.p. (pH 7.4; volume: 0.5 ml/rat).
Baseline respiratory function was measured under room air ventilation and after the animal was stabilized inside a boy cylinder (FIGS. 1a and b) for 30 minutes at each time point prior to SCI and after injury. Immediately following the evaluation of baseline respiration, the animals were let to breathe air containing 7% CO2 for 7 minutes to monitor their ventilatory response to CO2 stimulus (Teng et al., 1998a and 1999).

normal conscious rats = assay: Respiratory function by head-out plethysmograph in normal conscious rats; format: in vivo, rat
Method: as §1, §2, §3

[1] = rats; cited from earlier work
SOD1 mice = assay: Respiratory function (tidal volume, respiratory rate) in SOD1 mice, model of familial ALS; format: in vivo, mouse
Method: SOD1 mice are mutant mice which provide an animal model for an inherited form of ALS which is more commonly referred to as familial ALS. […] These parameters of respiratory function were subsequently reevaluated 2 minutes after drug treatment.

child with apneusis = details: buspirone orally 8 mg/day; cited from earlier work
mdx mutant mice = details: clenbuterol orally 1.0–1.5 mg/kg body weight/day, one year, cited from earlier work
[2] = 24 hours p.i., 8-OH-DPAT 250 μg/kg i.p., time-course study, n=3
[3] = 24 hours post SCI, pre-treated with p-MPPI 3 mg/kg i.p. 20 min before, 7% CO2 at 16′ & 17′ after 8-OH-DPAT
[4] = 24 hours post SCI, pre-treated with p-MPPI 3 mg/kg i.p. 20 min before, baseline, 3 & 4 min post 8-OH-DPAT
[5] = 24 hours post SCI, pre-treated with p-MPPI 3 mg/kg i.p. 20 min before, baseline, 9 & 10 min post 8-OH-DPAT
[6] = 24 h p.i., 7% CO2 at 24 min after 8-OH-DPAT 250 μg/kg i.p.
[7] = 24 h p.i., baseline (room air), 3 & 4 min post 8-OH-DPAT 250 μg/kg i.p.
[8] = 24 h p.i., baseline (room air), 21 & 22 min post 8-OH-DPAT 250 μg/kg i.p.
[9] = 7 d p.i., 7% CO2 at 31′ & 32′ post 8-OH-DPAT 250 μg/kg i.p.
[10] = 7 d p.i., baseline (room air), 3 & 4 min post 8-OH-DPAT 250 μg/kg i.p.
[11] = 7 d p.i., baseline (room air), 21 & 22 min post 8-OH-DPAT 250 μg/kg i.p.
[12] = 7% CO2 at 31′ & 32′ after 8-OH-DPAT 250 μg/kg i.p.
[13] = baseline (room air), 3 & 4 min post 8-OH-DPAT 250 μg/kg i.p.
[14] = baseline (room air), 11 & 12 min post 8-OH-DPAT 250 μg/kg i.p.
[15] = baseline (room air), 21 & 22 min post 8-OH-DPAT 250 μg/kg i.p.
[16] = 24 hours after SCI, 7% CO2 at 15 & 16 min after buspirone 1.5 mg/kg i.p.
[17] = 24 hours after SCI, baseline (room air), 3 & 4 min post buspirone 1.5 mg/kg i.p.
[18] = 24 hours after SCI, baseline (room air), 8 & 9 min post buspirone 1.5 mg/kg i.p.
[19] = 24 hours p.i., buspirone 1.5 mg/kg i.p.
[20] = buspirone 3.0 mg/kg i.p. or s.c. (FIGS. 6 and 7)

CCCN(CCC)C1CCc2cccc(O)c2C1 (stereo not drawn) [8-OH-DPAT, 8-hydroxy-2-(di-n-propylamino)tetralin]
effect on SCI-induced abnormal respiratory pattern (T8 SCI rats; 24 hours after SCI, 8-OH-DPAT 250 μg/kg i.p.): promptly and successfully reversed the injury-triggered respiratory abnormalities
duration of initial rise of f above p.i. levels (T8 SCI rats; 24 hours p.i., 8-OH-DPAT 250 μg/kg i.p.): about 20 minutes
time for which a single dose normalized ventilatory response to breathing 7% CO2 (T8 SCI rats; [2]): more than 2 hours
time for which improvement of baseline Ve (room air) was significant (T8 SCI rats; [2]): 1 h
Te (expiratory time) (T8 SCI rats; [3]): 0.32 ± 0.05
Ti (inspiratory time) (T8 SCI rats; [3]): 0.19 ± 0.02
Tv (tidal volume) (T8 SCI rats; [3]): 1.15 ± 0.21↓ ml
Ve (minute ventilation) (T8 SCI rats; [3]): 143.1 ± 28.1↓ ml/min
f (respiratory rate) (T8 SCI rats; [3]): 126.8 ± 14.4 breaths/min
Te (expiratory time) (T8 SCI rats; [4]): 0.32 ± 0.08↓
Ti (inspiratory time) (T8 SCI rats; [4]): 0.32 ± 0.02
Tv (tidal volume) (T8 SCI rats; [4]): 0.85 ± 0.14↓ ml
Ve (minute ventilation) (T8 SCI rats; [4]): 82.5 ± 10.9↓ ml/min
f (respiratory rate) (T8 SCI rats; [4]): 99.4 ± 9.1↑ breaths/min
Te (expiratory time) (T8 SCI rats; [5]): 0.28 ± 0.02↓
Ti (inspiratory time) (T8 SCI rats; [5]): 0.31 ± 0.02
Tv (tidal volume) (T8 SCI rats; [5]): 0.82 ± 0.11↓ ml
Ve (minute ventilation) (T8 SCI rats; [5]): 88.3 ± 13.3↓ ml/min
f (respiratory rate) (T8 SCI rats; [5]): 107.5 ± 1.9↑ breaths/min
Ti (inspiratory time) (T8 SCI rats; [6]): 0.17 ± 0.01
Tv (tidal volume) (T8 SCI rats; [6]): 1.52 ± 0.08 mL
Ve (minute ventilation) (T8 SCI rats; [6]): 267.5 ± 21.8 mL/min
f (respiratory rate) (T8 SCI rats; [6]): 175.9 ± 9.7 breaths/min
Te (expiratory time) (T8 SCI rats; [7]): 0.25 ± 0.02↓
Ti (inspiratory time) (T8 SCI rats; [7]): 0.19 ± 0.01
Tv (tidal volume) (T8 SCI rats; [7]): 0.96 ± 0.08 mL
Ve (minute ventilation) (T8 SCI rats; [7]): 149.9 ± 15.6↑ ml/min
f (respiratory rate) (T8 SCI rats; [7]): 155.5 ± 8.7↑ breaths/min
Te (expiratory time) (T8 SCI rats; [8]): 0.47 ± 0.02
Ti (inspiratory time) (T8 SCI rats; [8]): 0.18 ± 0.01
Tv (tidal volume) (T8 SCI rats; [8]): 0.80 ± 0.06 mL
Ve (minute ventilation) (T8 SCI rats; [8]): 81.3 ± 10.9 mL/min
f (respiratory rate) (T8 SCI rats; [8]): 98.5±3.7 breaths/min and 98.5 ± 5.18 breaths/min
effect on SCI-induced abnormal respiratory pattern (T8 SCI rats; 7 days p.i., 8-OH-DPAT 250 μg/kg i.p.): restored this abnormal pattern of breathing to normal
Te (expiratory time) (T8 SCI rats; [9]): 0.17 ± 0.01
Ti (inspiratory time) (T8 SCI rats; [9]): 0.16 ± 0.01
Tv (tidal volume) (T8 SCI rats; [9]): 1.79 ± 0.35 mL
Ve (minute ventilation) (T8 SCI rats; [9]): 327.2 ± 53.7↑ ml/min
f (respiratory rate) (T8 SCI rats; [9]): 184.6 ± 6.6↑ breaths/min
Te (expiratory time) (T8 SCI rats; [10]): 0.26 ± 0.03↓
Ti (inspiratory time) (T8 SCI rats; [10]): 0.16 ± 0.01
Tv (tidal volume) (T8 SCI rats; [10]): 1.11 ± 0.05 mL
Ve (minute ventilation) (T8 SCI rats; [10]): 172.1 ± 17.1↑ ml/min
f (respiratory rate) (T8 SCI rats; [10]): 155.2 ± 8.9↑ breaths/min
Te (expiratory time) (T8 SCI rats; [11]): 0.32 ± 0.02↓
Ti (inspiratory time) (T8 SCI rats; [11]): 0.15 ± 0.01
Tv (tidal volume) (T8 SCI rats; [11]): 0.79 ± 0.04 mL
Ve (minute ventilation) (T8 SCI rats; [11]): 103.0 ± 2.1↑ ml/min
f (respiratory rate) (T8 SCI rats; [11]): 131.7 ± 7.7↑ breaths/min
Te (expiratory time) (normal conscious rats; [12]): 0.23 ± 0.03
Ti (inspiratory time) (normal conscious rats; [12]): 0.19 ± 0.01
Tv (tidal volume) (normal conscious rats; [12]): 1.50 ± 0.14 mL
Ve (minute ventilation) (normal conscious rats; [12]): 239.3 ± 48.9 mL/min
f (respiratory rate) (normal conscious rats; [12]): 155.6 ± 18.5 breaths/min
duration of increase in baseline Vt (normal conscious rats; 8-OH-DPAT 250 μg/kg i.p.): 4 min
duration of stimulating effect on f (normal conscious rats; 8-OH-DPAT 250 μg/kg i.p., to last minute of observation): ≥ 23 min
Te (expiratory time) (normal conscious rats; [13]): 0.25 ± 0.09↓
Ti (inspiratory time) (normal conscious rats; [13]): 0.19 ± 0.04
Tv (tidal volume) (normal conscious rats; [13]): 1.14 ± 0.08↑ ml
Ve (minute ventilation) (normal conscious rats; [13]): 198.6 ± 32.9↑ ml/min
f (respiratory rate) (normal conscious rats; [13]): 177.5 ± 36.2↑ breaths/min
Te (expiratory time) (normal conscious rats; [14]): 0.30 ± 0.07↓
Ti (inspiratory time) (normal conscious rats; [14]): 0.16 ± 0.02
Tv (tidal volume) (normal conscious rats; [14]): 0.92 ± 0.05 mL
Ve (minute ventilation) (normal conscious rats; [14]): 138.6 ± 27.6↑ ml/min
f (respiratory rate) (normal conscious rats; [14]): 149.8 ± 26.5↑ breaths/min
Te (expiratory time) (normal conscious rats; [15]): 0.41 ± 0.08↓
Ti (inspiratory time) (normal conscious rats; [15]): 0.18 ± 0.02
Tv (tidal volume) (normal conscious rats; [15]): 0.84 ± 0.02 mL
Ve (minute ventilation) (normal conscious rats; [15]): 112.9 ± 15.2↑ ml/min
f (respiratory rate) (normal conscious rats; [15]): 134.4 ± 21.2↑ breaths/min
ventilatory response to 7% CO2 challenge (normal conscious rats; starting at 24 minutes after 8-OH-DPAT): did not significantly alter
systematic half life (T1/2) [1]: ~50 min

O=C1CC2(CCCC2)CC(=O)N1CCCCN1CCN(c2ncccn2)CC1 [buspirone]
Te (expiratory time) (T8 SCI rats; [16]): 0.21 ± 0.03
Ti (inspiratory time) (T8 SCI rats; [16]): 0.17 ± 0.01
Tv (tidal volume) (T8 SCI rats; [16]): 1.46 ± 0.14 mL
Ve (minute ventilation) (T8 SCI rats; [16]): 240.9 ± 44.8 mL/min
Te (expiratory time) (T8 SCI rats; [17]): 0.27 ± 0.03↑
Ti (inspiratory time) (T8 SCI rats; [17]): 0.19 ± 0.01
Tv (tidal volume) (T8 SCI rats; [17]): 1.17 ± 0.13 mL
Ve (minute ventilation) (T8 SCI rats; [17]): 171.3 ± 30.1 mL/min
Te (expiratory time) (T8 SCI rats; [18]): 0.40 ± 0.05
Ti (inspiratory time) (T8 SCI rats; [18]): 0.20 ± 0.03
Ve (minute ventilation) (T8 SCI rats; [18]): 101.8 ± 11.4 mL/min
SCI reduced Vt values after treatment (T8 SCI rats; [19]): levels indiscenible from pre-injury readings
duration of effect on Vt (printed Bt) (T8 SCI rats; [19]): up to 9 minutes
effect on abnormal respiratory function resulting from T8 SCI (T8 SCI rats; [19]): reversed the abnormal respiratory function
respiratory frequency (SOD1 mice; [20]): reduces
tidal volume (SOD1 mice; [20]): significantly increases
respiratory function (tidal volume, respiratory rate) (SOD1 mice; buspirone 3.0 mg/kg subcutaneous, 2 minutes after treatment): significantly improved
apneusis (child with apneusis): reverses apneusis

CC(C)(C)NCC(O)c1cc(Cl)c(N)c(Cl)c1 (stereo not drawn) [clenbuterol]
increase in myosin concentration of mdx diaphram (DIA) (mdx mutant mice; mdx mice): 22%
soleus (SOL) weight and SOL muscle weight to body weight ratio (mdx mutant mice; normal control and mdx mice): significantly increase
